Tests used:
[1] = Stability in human blood plasma; conditions: 10 μM in pooled human blood plasma, incubated 4 hours at 37° C.
[2] = system: Z-138 (mantle cell lymphoma); assay: Antiproliferative activity, Z-138 cells (Alamar Blue); type: cell-based; conditions: Homo sapiens, Table 10, 72 h, average of several tests
Summary of the method: (§1)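 IC50 values come from a four-parameter logistic fit of Alamar Blue fluorescence (540 nm excitation, 590 nm emission) read 14-16 h after reagent addition. Before that, the lymphoma lines, about 3*10^4 cells per well in 10% FBS RPMI-1640, were incubated with compound for 72 h at 37 °C, keeping final DMSO below 1%.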

[3] = General cytotoxicity on HepG2 cells (CC50; therapeutic index CC50 HepG2/IC50 Mino); type: cell-based; conditions: human, HepG2 cells (hepatocellular carcinoma); Table 10; 72 hours, Alamar Blue; average of several tests
Summary of the method: (§2)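 Alamar Blue viability after 72 h exposure to compounds (final 200 μM–4 μM) gave CC50; HepG2 plated 2*10^4/well in DMEM 24 h beforehand. Therapeutic index expressed as ratio of HepG2 CC50 to Mino antiproliferative IC50.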

[4] = system: HepG2 cells (hepatocellular carcinoma); assay: as above; type: cell-based; conditions: Table 10; therapeutic index
Summary of the method: as §2

[5] = system: Mino (mantle cell lymphoma); assay: Antiproliferative activity, Mino cells (Alamar Blue); type: cell-based; conditions: Homo sapiens, Table 10, 72 h, average of several tests
Summary of the method: as §1

[6] = Chemical stability in artificial gastric fluid (SGF without enzymes); conditions: 10 μM in SGF without enzymes, pH=1.4, 37° C.

| Structure (SMILES) | Amount of substance in the sample, % (stability in human blood plasma) [1] | IC50 [2] | CC50 at 72 h [3] | CC50 (HepG2)/IC50 (Mino) [4] | IC50 [5] | Amount of substance in the sample in % (chemical stability) [6] |
| --- | --- | --- | --- | --- | --- | --- |
| C=CC(=O)N1CCC[C@@H](n2nc(-c3ccc(-n4ccc(=O)c(C#N)c4)cc3)c3cncc(Cl)c32)C1 [BCD-BTK-208, (R)-1-(4-(1-(1-acryloylpiperidin-3-yl)-7-chloro-1H-pyrazolo[4,3-c]pyridin-3-yl)phenyl)-4-oxo-1,4-dihydropyridine-3-carbonitrile] | 91.4% | 32.2 µM | 112 µM | 5.21 | 21.5 µM |  |
| C=CC(=O)N1CCC[C@@H](n2nc(-c3ccc(C(=O)Nc4ccc(F)cn4)cc3)c3cncc(Cl)c32)C1 [BCD-BTK-212, (R)-4-(1-(1-acryloylpiperidin-3-yl)-7-chloro-1H-pyrazolo[4,3-c]pyridin-3-yl)-N-(5-fluoropyridin-2-yl)benzamide] | 90.8% | 14.8 µM | 28.1 µM | 8.01 | 3.5 µM |  |
| C=CC(=O)N1CCC[C@H]1Cn1nc(-c2ccc(Oc3ccncc3)cc2)c2cncc(Cl)c21 [BCD-BTK-263, (S)-1-(2-((7-chloro-3-(4-(pyridin-4-yloxy)phenyl)-1H-pyrazolo[4,3-c]pyridin-1-yl)methyl)pyrrolidin-1-yl)prop-2-en-1-one] | 86.7% | 35.2 µM | > 50 µM | >2.42 | 20.6 µM | 100% |
| CC#CC(=O)N1CC[C@@H](n2nc(-c3ccc(Oc4ccncc4)cc3)c3cncc(Cl)c32)C1 [BCD-BTK-265, (R)-1-(3-(7-chloro-3-(4-(pyridin-4-yloxy)phenyl)-1H-pyrazolo[4,3-c]pyridin-1-yl)pyrrolidin-1-yl)but-2-yn-1-one] | 81.7% | 16.6 µM | 16.5 µM | 2.09 | 7.91 µM | 94.8% |
| C=CC(=O)N1CCC[C@@H](n2nc(-c3ccc(Oc4cncc(C(N)=O)c4)cc3)c3cncc(F)c32)C1 [BCD-BTK-274, (R)-5-(4-(1-(1-acryloylpiperidin-3-yl)-7-fluoro-1H-pyrazolo[4,3-c]pyridin-3-yl)phenoxy)nicotinamide] | 91.3% | > 100 µM | 38 µM | 0.95 | 40.1 µM | 100% |
| CC#CC(=O)N1CCC[C@@H](n2nc(-c3ccc(C(=O)Nc4ccccn4)cc3)c3cncc(Cl)c32)C1 [BCD-BTK-289, (R)-4-(1-(1-(but-2-ynoyl)piperidin-3-yl)-7-chloro-1H-pyrazolo[4,3-c]pyridin-3-yl)-N-(pyridin-2-yl)benzamide] | 100.0% | 8.29 µM | 18.8 µM | 1.85 | 10.2 µM | 100% |

Reference: patent US20190352276A1, “INHIBITORS OF BRUTON'S TYROSINE KINASE” (Joint Stock Company "Biocad", priority 2016, published 2019)
